Consider 5 compounds from patent US8501911B2, “Methods of reducing inflammation and mucus hypersecretion” (Biomarck Pharmaceuticals, Ltd, priority 1999, dated 2013).

Residues, ends and D or L forms follow the SMILES beside them. *: point of attachment. Myristoyl = CCCCCCCCCCCCCC(=O)*

The subject of test [1] is LPS-primed human neutrophils. Nature of the test: MPO secretion from LPS-primed human neutrophils. Format: cell-based. As to the method:
Results-I-11 and Results-I-12 show MPO secretion from LPS-primed human neutrophils as a model for humans, and Results-I-13, Results-I-14, and Results-I-15 show MPO secretion from LPS-primed canine neutrophils as a model for canines. In all of these experiments, isolated neutrophils were stimulated with LPS at a concentration of 1×10^−6 M for 10 minutes at 37° C. prior to adding the stimuli. The LPS primes the cells so they can respond to a secretagogue.
Thus, in one comparative experiment, when absorbance was monitored at 450 nm while observing MPO secretion from LPS-primed human neutrophils, Results-I-11 were obtained as follows.
In another comparative experiment, when absorbance was monitored at 450 nm while observing MPO secretion from LPS-primed human neutrophils, Results-I-12 were obtained as follows.
MPO Colorimetric Enzyme Assay—Samples were assayed for MPO activity in 96 well round bottom microtiter plates using a sandwich ELISA kit (R & D Systems, Minneapolis, Minn.). Briefly, 20 microliters of sample is mixed with 180 microliters of substrate mixture containing 33 mM potassium phosphate, pH 6.0, 0.56% Triton X-100, 0.11 mM hydrogen peroxide, and 0.36 mM O-Diannisidine Dihydrochloride in an individual microtiter well. […] After mixing, the assay mixture was incubated at room temperature for 5 minutes, and MPO enzyme activity determined spectrophotometrically at 550 nanometers. […]

The next test has as its system canine neutrophils. The test is described as follows: MPO secretion from isolated canine neutrophils stimulated with PMA+8-Br-cGMP. Format: cell-based. The protocol: Isolation of PMNs from canine blood—The steps involved in isolating PMN include collecting 10 ml ACD anticoagulated blood; then layering 5 ml on 3.5 ml PMN isolation media while ensuring that the PMN isolation media (IM) was at room temperature (RI). Next, the blood was centrifuged at room temperature for 30′, 550×g at 1700 RPMs. The low lower white band was transferred into a 15 ml conical centrifuge tube (CCFT). Next, 2V HESS with 10% fetal bovine serum […] was added and centrifuged at room temperature for 10′, 400×g at 1400 RPMs. The pellet was then resuspended in 5 ml 1-1ESS with PBS. The cell suspension was added to 50 ml CCFT containing 20 ml of ice cold 0.88% NH4 Cland inverted two to three times. The resulting product was centrifuged for 10′, 800×g at 2000 RPMs, then aspirated and resuspended in ml HBSS with FBS. The prep was examined by counting and cytospin and preferably for whole blood, the cell number should be between 10^9-10^11 cells and for PMNs, cell number should be between 2-4×10^7 cells. See generally, Wang et al., J. Immunol., “Neutrophil-induced changes in the biomechanical properties of endothelial cells: roles of ICAM-1 and reactive oxygen species,” 6487-94 (2000).
MPO Colorimetric Enzyme Assay—Samples were assayed for MPO activity in 96 well round bottom microtiter plates using a sandwich ELISA kit (R & D Systems, Minneapolis, Minn.). Briefly, 20 microliters of sample is mixed with 180 microliters of substrate mixture containing 33 mM potassium phosphate, pH 6.0, […], 0.11 mM hydrogen peroxide, and 0.36 mM O-Diannisidine Dihydrochloride in an individual microtiter well. The final concentrations in the assay mixture are: 30 mM potassium phosphate, pH 6.0, 0.05% Triton X-100, 0.1 mM hydrogen peroxide, and 0.32 mM O-Diannisidine Dihydrochloride. […] Samples were assayed in duplicate.

Test [2] relates to human bronchial epithelial cells. Nature of the test: Basal (constitutive) mucin secretion by human bronchial epithelial cells. The conditions noted are these: peptide 100 μM, one hour incubation, no PMA or 8-Br-cGMP. It is filed as cell-based. As to the method:
Mucus secreted from the airway epithelial cells in vitro after stimulation by activators was assessed using an ELISA (antibody capture method) (E. Harlow, D. Lane. “Antibodies: A Laboratory Manual.” New York: Cold Spring Harbor Laboratory Press, 1988), wherein the collected mucus is bound directly to the ELISA plate. Mucus was detected using an antibody raised against monkey airway mucus (Lin et al. Am J Respir Cell Mol Biol 1:41, 1989).
The MANS peptide (100 μM) was also found to decrease constitutive (basal) mucus secretion by one hour incubation. Cells were treated as described above except that no PMA or 8-Br-cGMP was used. […] Results, designated as Results-M-1B, are presented as follows and show the inhibition of basal mucin secretion by human bronchial epithelial cells exposed to the MANS peptide (SEQ ID NO: 1) or a negative control peptide consisting of the same amino acids as the MANS peptide, but in random order (RNS peptide; random N-terminal sequence (SEQ ID NO: 26):
The effect of MA-PSD peptide (1, 10 and 100 μM) on basal mucin secretion was also measured. Cells as described above were incubated for one hour with the MA-PSD peptide (no PMA or 8-Br-cGMP).

The test system of a further test is MARCKS mRNA. Nature of the test: MARCKS mRNA level in NHBE cells (Northern hybridization). Conditions: TNF-α 10 ng/ml 4 h, then PMA 100 nM+8-Br-cGMP 1 μM 15 min. Format: cell-based, human. The protocol: NHBE cells were treated with the antisense or the control oligonucleotide for 3 days and then stimulated with PMA (100 nM)+8-Br-cGMP (1 μM) for 15 min. Mucin secretion was analyzed by ELISA. Total RNA and protein were isolated from treated cells. MARCKS mRNA was assessed by Northern hybridization, and protein was assessed by Western blot. […] In this regard, MARCKS mRNA as a percent of control is shown in the following results which are designated as Results-I-3A-2:
Antisense Oligonucleotides—MARCKS antisense oligonucleotide and its corresponding control oligonucleotide were synthesized at Biognostik GmbH (Gottingen, Germany). […] Cells were then incubated with secretagogues, and mucin secretion was measured by ELISA. […] MARCKS mRNA was assessed by Northern hybridization according to conventional procedures using human MARCKS cDNA as a probe. MARCKS protein level was determined by Western blot using purified anti-MARCKS IgG1 (clone 2F12) as the primary detection antibody.
NHBE cells were incubated with 10 ng/ml human recombinant TNF-α or medium alone for 4 hrs, then stimulated with PMA (100 nM)+8-Br-cGMP (1 μM) for 15 min, or UTP (0.1 mM) for 2 hrs. Secreted mucin was collected and measured by ELISA. […] MARCKS mRNA was assessed by Northern hybridization, and protein by the Western Blot technique. […]

[3] abbreviates: peptide 1 μM + 100 nM PMA+10 μM 8-Br-cGMP, unstimulated control 0.10.
The mark [4] stands for this setting: peptide 10 μM + 100 nM PMA+10 μM 8-Br-cGMP.

Consider `Nc1nc2c(nc(Br)n2[C@@H]2O[C@@H]3COP(=O)(O)O[C@H]3[C@H]2O)c(=O)[nH]1` [8-Br-cGMP], for which, in test [1] (cGMP alone, concentration not given), the “Absorbance reading at 450 nm (MPO secretion)” value turned out to be 0.155.

For `CCCCCCCCCCCCCC(=O)O[C@@H]1[C@@H](C)[C@@]2(O)[C@@H](C=C(CO)C[C@]3(O)C(=O)C(C)=C[C@@H]23)[C@@H]2C(C)(C)[C@]12OC(C)=O` [PMA, phorbol 12-myristate 13-acetate], the “Absorbance reading at 450 nm (MPO secretion)” value in test [1] (10 nM PMA, medium control 0.15) was determined as 0.19.

Turning to `CCCCCCCCCCCCCC(=O)NCC(=O)N[C@@H](C)C(=O)N[C@@H](CCC(N)=O)C(=O)N[C@@H](Cc1ccccc1)C(=O)N[C@@H](CO)C(=O)N[C@@H](CCCCN)C(=O)N[C@H](C(=O)N[C@@H](C)C(=O)N[C@@H](C)C(=O)N[C@@H](CCCCN)C(=O)NCC(=O)N[C@@H](CCC(=O)O)C(=O)N[C@@H](C)C(=O)N[C@@H](C)C(=O)N[C@@H](C)C(=O)N[C@@H](CCC(=O)O)C(=O)N[C@@H](CCCNC(=N)N)C(=O)N1CCC[C@H]1C(=O)NCC(=O)N[C@@H](CCC(=O)O)C(=O)N[C@@H](C)C(=O)N[C@@H](C)C(=O)N[C@H](C(=O)N[C@@H](C)C(=O)O)C(C)C)[C@@H](C)O` [MANS peptide] (Myristoyl-GAQFSKTAAKGEAAAERPGEAAVA-OH; C-terminus assumed), the “Absorbance at 450 nm (MPO secretion)” value with canine neutrophils (setting [3]) amounted to 0.25; in the test on canine neutrophils (setting [4]), 0.09. Moreover, the “Basal mucin secretion level relative to control” value in test [2] is recorded as 28%.

In the case of `CCCCCCCCCCCCCC(=O)NCC(=O)N[C@H](C(=O)N[C@@H](C)C(=O)N1CCC[C@H]1C(=O)N[C@@H](C)C(=O)N[C@@H](C)C(=O)N[C@@H](CCC(=O)O)C(=O)NCC(=O)N[C@@H](C)C(=O)NCC(=O)N[C@@H](C)C(=O)N[C@@H](CCC(=O)O)C(=O)N[C@H](C(=O)N[C@@H](CCCCN)C(=O)N[C@@H](CCCNC(=N)N)C(=O)N[C@@H](C)C(=O)N[C@@H](CO)C(=O)N[C@@H](C)C(=O)N[C@@H](CCC(=O)O)C(=O)N[C@@H](C)C(=O)N[C@@H](CCCCN)C(=O)N[C@@H](CCC(N)=O)C(=O)N[C@@H](C)C(=O)N[C@@H](Cc1ccccc1)C(=O)O)C(C)C)[C@@H](C)O` [RNS peptide, reference compound] (Myristoyl-GTAPAAEGAGAEVKRASAEAKQAF-OH; C-terminus assumed), the “Absorbance at 450 nm (MPO secretion)” value in the test on canine neutrophils (setting [3]) was determined as 0.32; in the test with canine neutrophils (setting [4]), 0.30. Besides, in test [2], the “Basal mucin secretion level relative to control” value is 90%.

For the compound TNF-α, in the test with MARCKS mRNA, the “MARCKS mRNA level relative to control” value is 115%.
